{"source": "PubChem BioAssay AID1963985", "about": "(Molecular Pharmacology Branch, DTP, NCI, 2024)", "test_system": "252836-082-R-J2-PDC tumor spheroids, viability", "test": "Anticancer human tumor 252836-082-R-J2-PDC patient-derived head and neck squamous cell carcinoma cell line growth inhibition [PI3K]", "settings": "spheroids with HUVEC and MSC; for pIC50: curve of first compound; for viability, T/C: stronger effect = lower value", "in_short": "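Stroma-containing spheroids: tumor line, pooled-donor HUVEC, hMSC. Treatments: targeted agents with PI3K inhibitors. Dosing: clinically relevant, half-log spacing, 10 microM ceiling without known Cmax. Read-out: cell viability.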", "key": {"[1]": {"settings": "second compound 0.0316 µM, first compound 0.0316 µM"}, "[2]": {"settings": "second compound 0.0316 µM, first compound 0.1 µM"}, "[3]": {"settings": "second compound 0.1 µM, first compound 0.0316 µM"}, "[4]": {"settings": "second compound 0.1 µM, first compound 0.1 µM"}, "[5]": {"settings": "second compound 0.316 µM, first compound 0.0316 µM"}, "[6]": {"settings": "second compound 0.316 µM, first compound 0.1 µM"}, "[7]": {"settings": "second compound 1 µM, first compound 0.0316 µM"}, "[8]": {"settings": "second compound 1 µM, first compound 0.1 µM"}, "[9]": {"settings": "second compound 3.16 µM, first compound 0.0316 µM"}, "[10]": {"settings": "second compound 3.16 µM, first compound 0.1 µM"}, "[11]": {"settings": "second compound 10 µM, first compound 0.0316 µM"}, "[12]": {"settings": "second compound 10 µM, first compound 0.1 µM"}}, "note": "pIC50: −log10 of the molar value.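 Note: spheroids exposed to agents for seven days before readout.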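 Throughout, for viability, T/C: percent of vehicle DMSO control viability so 100% = untreated growth.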"}
{"smiles": "CC(=O)c1c(C)c2cnc(Nc3ccc(N4CCNCC4)cn3)nc2n(C2CCCC2)c1=O", "note": "+ CC(Nc1ncnc2nc[nH]c12)c1cc2cccc(Cl)c2c(=O)n1-c1ccccc1", "values": [{"measurement": "pIC50", "setting": "second compound 0.0316 µM", "result": "< 7.00"}, {"measurement": "pIC50", "setting": "second compound 0.1 µM", "result": "< 7.00"}, {"measurement": "pIC50", "setting": "second compound 0.316 µM", "result": "< 7.00"}, {"measurement": "pIC50", "setting": "second compound 1 µM", "result": "< 7.00"}, {"measurement": "pIC50", "setting": "second compound 3.16 µM", "result": "< 7.00"}, {"measurement": "pIC50", "setting": "second compound 10 µM", "result": "< 7.00"}, {"measurement": "viability, T/C", "setting": "second compound 0.0316 µM, first compound 0.000316 µM", "result": 99.4, "unit": "%"}, {"measurement": "viability, T/C", "setting": "second compound 0.0316 µM, first compound 0.001 µM", "result": 92.6, "unit": "%"}, {"measurement": "viability, T/C", "setting": "second compound 0.0316 µM, first compound 0.00316 µM", "result": 93, "unit": "%"}, {"measurement": "viability, T/C", "setting": "second compound 0.0316 µM, first compound 0.01 µM", "result": 89.1, "unit": "%"}, {"measurement": "viability, T/C", "setting": "[1]", "result": 91.8, "unit": "%"}, {"measurement": "viability, T/C", "setting": "[2]", "result": 93.2, "unit": "%"}, {"measurement": "viability, T/C", "setting": "second compound 0.1 µM, first compound 0.000316 µM", "result": 105, "unit": "%"}, {"measurement": "viability, T/C", "setting": "second compound 0.1 µM, first compound 0.001 µM", "result": 89.6, "unit": "%"}, {"measurement": "viability, T/C", "setting": "second compound 0.1 µM, first compound 0.00316 µM", "result": 76.6, "unit": "%"}, {"measurement": "viability, T/C", "setting": "second compound 0.1 µM, first compound 0.01 µM", "result": 83.3, "unit": "%"}, {"measurement": "viability, T/C", "setting": "[3]", "result": 83, "unit": "%"}, {"measurement": "viability, T/C", "setting": "[4]", "result": 75.4, "unit": "%"}, {"measurement": "viability, T/C", "setting": "second compound 0.316 µM, first compound 0.000316 µM", "result": 114, "unit": "%"}, {"measurement": "viability, T/C", "setting": "second compound 0.316 µM, first compound 0.001 µM", "result": 91.4, "unit": "%"}, {"measurement": "viability, T/C", "setting": "second compound 0.316 µM, first compound 0.00316 µM", "result": 86.9, "unit": "%"}, {"measurement": "viability, T/C", "setting": "second compound 0.316 µM, first compound 0.01 µM", "result": 93.7, "unit": "%"}, {"measurement": "viability, T/C", "setting": "[5]", "result": 88.7, "unit": "%"}, {"measurement": "viability, T/C", "setting": "[6]", "result": 96.6, "unit": "%"}, {"measurement": "viability, T/C", "setting": "second compound 1 µM, first compound 0.000316 µM", "result": 81.9, "unit": "%"}, {"measurement": "viability, T/C", "setting": "second compound 1 µM, first compound 0.001 µM", "result": 72.4, "unit": "%"}, {"measurement": "viability, T/C", "setting": "second compound 1 µM, first compound 0.00316 µM", "result": 76.8, "unit": "%"}, {"measurement": "viability, T/C", "setting": "second compound 1 µM, first compound 0.01 µM", "result": 93.9, "unit": "%"}, {"measurement": "viability, T/C", "setting": "[7]", "result": 79.8, "unit": "%"}, {"measurement": "viability, T/C", "setting": "[8]", "result": 79.2, "unit": "%"}, {"measurement": "viability, T/C", "setting": "second compound 3.16 µM, first compound 0.000316 µM", "result": 91.6, "unit": "%"}, {"measurement": "viability, T/C", "setting": "second compound 3.16 µM, first compound 0.001 µM", "result": 87.9, "unit": "%"}, {"measurement": "viability, T/C", "setting": "second compound 3.16 µM, first compound 0.00316 µM", "result": 66.1, "unit": "%"}, {"measurement": "viability, T/C", "setting": "second compound 3.16 µM, first compound 0.01 µM", "result": 74.2, "unit": "%"}, {"measurement": "viability, T/C", "setting": "[9]", "result": 73.7, "unit": "%"}, {"measurement": "viability, T/C", "setting": "[10]", "result": 71.6, "unit": "%"}, {"measurement": "viability, T/C", "setting": "second compound 10 µM, first compound 0.000316 µM", "result": 57.5, "unit": "%"}, {"measurement": "viability, T/C", "setting": "second compound 10 µM, first compound 0.001 µM", "result": 56.3, "unit": "%"}, {"measurement": "viability, T/C", "setting": "second compound 10 µM, first compound 0.00316 µM", "result": 69.2, "unit": "%"}, {"measurement": "viability, T/C", "setting": "second compound 10 µM, first compound 0.01 µM", "result": 61.1, "unit": "%"}, {"measurement": "viability, T/C", "setting": "[11]", "result": 71.4, "unit": "%"}, {"measurement": "viability, T/C", "setting": "[12]", "result": 60.6, "unit": "%"}]}
{"smiles": "CCCS(=O)(=O)Nc1ccc(F)c(C(=O)c2c[nH]c3ncc(-c4ccc(Cl)cc4)cc23)c1F", "note": "+ CC(Nc1ncnc2nc[nH]c12)c1cc2cccc(Cl)c2c(=O)n1-c1ccccc1", "values": [{"measurement": "pIC50", "setting": "second compound 0.0316 µM", "result": 5.30}, {"measurement": "pIC50", "setting": "second compound 0.1 µM", "result": 5.26}, {"measurement": "pIC50", "setting": "second compound 0.316 µM", "result": 5.27}, {"measurement": "pIC50", "setting": "second compound 1 µM", "result": 5.31}, {"measurement": "pIC50", "setting": "second compound 3.16 µM", "result": 5.32}, {"measurement": "pIC50", "setting": "second compound 10 µM", "result": 5.39}, {"measurement": "viability, T/C", "setting": "[1]", "result": 101, "unit": "%"}, {"measurement": "viability, T/C", "setting": "[2]", "result": 93.7, "unit": "%"}, {"measurement": "viability, T/C", "setting": "second compound 0.0316 µM, first compound 0.316 µM", "result": 109, "unit": "%"}, {"measurement": "viability, T/C", "setting": "second compound 0.0316 µM, first compound 1 µM", "result": 92.9, "unit": "%"}, {"measurement": "viability, T/C", "setting": "second compound 0.0316 µM, first compound 3.16 µM", "result": 78.7, "unit": "%"}, {"measurement": "viability, T/C", "setting": "second compound 0.0316 µM, first compound 10 µM", "result": 8.82, "unit": "%"}, {"measurement": "viability, T/C", "setting": "[3]", "result": 99.6, "unit": "%"}, {"measurement": "viability, T/C", "setting": "[4]", "result": 92.9, "unit": "%"}, {"measurement": "viability, T/C", "setting": "second compound 0.1 µM, first compound 0.316 µM", "result": 109, "unit": "%"}, {"measurement": "viability, T/C", "setting": "second compound 0.1 µM, first compound 1 µM", "result": 91.9, "unit": "%"}, {"measurement": "viability, T/C", "setting": "second compound 0.1 µM, first compound 3.16 µM", "result": 88.6, "unit": "%"}, {"measurement": "viability, T/C", "setting": "second compound 0.1 µM, first compound 10 µM", "result": 8.07, "unit": "%"}, {"measurement": "viability, T/C", "setting": "[5]", "result": 98.8, "unit": "%"}, {"measurement": "viability, T/C", "setting": "[6]", "result": 84, "unit": "%"}, {"measurement": "viability, T/C", "setting": "second compound 0.316 µM, first compound 0.316 µM", "result": 82.7, "unit": "%"}, {"measurement": "viability, T/C", "setting": "second compound 0.316 µM, first compound 1 µM", "result": 90.4, "unit": "%"}, {"measurement": "viability, T/C", "setting": "second compound 0.316 µM, first compound 3.16 µM", "result": 83.1, "unit": "%"}, {"measurement": "viability, T/C", "setting": "second compound 0.316 µM, first compound 10 µM", "result": 9.77, "unit": "%"}, {"measurement": "viability, T/C", "setting": "[7]", "result": 89.2, "unit": "%"}, {"measurement": "viability, T/C", "setting": "[8]", "result": 90.2, "unit": "%"}, {"measurement": "viability, T/C", "setting": "second compound 1 µM, first compound 0.316 µM", "result": 95.6, "unit": "%"}, {"measurement": "viability, T/C", "setting": "second compound 1 µM, first compound 1 µM", "result": 104, "unit": "%"}, {"measurement": "viability, T/C", "setting": "second compound 1 µM, first compound 3.16 µM", "result": 76.5, "unit": "%"}, {"measurement": "viability, T/C", "setting": "second compound 1 µM, first compound 10 µM", "result": 7.1, "unit": "%"}, {"measurement": "viability, T/C", "setting": "[9]", "result": 86.7, "unit": "%"}, {"measurement": "viability, T/C", "setting": "[10]", "result": 87.5, "unit": "%"}, {"measurement": "viability, T/C", "setting": "second compound 3.16 µM, first compound 0.316 µM", "result": 88.4, "unit": "%"}, {"measurement": "viability, T/C", "setting": "second compound 3.16 µM, first compound 1 µM", "result": 91.5, "unit": "%"}, {"measurement": "viability, T/C", "setting": "second compound 3.16 µM, first compound 3.16 µM", "result": 72.7, "unit": "%"}, {"measurement": "viability, T/C", "setting": "second compound 3.16 µM, first compound 10 µM", "result": 11.2, "unit": "%"}, {"measurement": "viability, T/C", "setting": "[11]", "result": 71.7, "unit": "%"}, {"measurement": "viability, T/C", "setting": "[12]", "result": 73.2, "unit": "%"}, {"measurement": "viability, T/C", "setting": "second compound 10 µM, first compound 0.316 µM", "result": 68.4, "unit": "%"}, {"measurement": "viability, T/C", "setting": "second compound 10 µM, first compound 1 µM", "result": 65, "unit": "%"}, {"measurement": "viability, T/C", "setting": "second compound 10 µM, first compound 3.16 µM", "result": 62.3, "unit": "%"}, {"measurement": "viability, T/C", "setting": "second compound 10 µM, first compound 10 µM", "result": 10.3, "unit": "%"}]}
